Tests used:
293T cells [1] = experiment: Cell survival rate assay (CCK-8); type: cell-based
Summary of the method: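 293T cells seeded at 10,000 cells/well, cultured overnight, then exposed 24 h to LNP carrying 1.5 μg Fluc-mRNA (cationic:neutral:structured:PEG-type lipid 49:10:39.5:1.5) or Lipofectamine 3000. Viability read by CCK-8, 1 h incubation, absorbance at 450 nm.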

293T cells [2] = experiment: Fluorescent detection of Fluc-mRNA (cell transfection efficiency of LNP formulations); type: cell-based
female BALB/C mice [3] = experiment: In vivo imaging in mice of Fluc-mRNA LNP formulations (mRNA expression and duration)
Summary of the method: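 Female BALB/C mice (4-6 weeks, 17-19 g) received LNP carrying […] Fluc-mRNA intramuscularly. At 6h, 24 h, 48h and 7d, fluorescent imaging substrate was given intraperitoneally and after 5 minutes average radiance, as a measure of expressed protein, was imaged on an IVIS Spectrum system.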

female BALB/C mice [4] = experiment: Distribution of liposomes in mice (protein expression in liver, spleen, lung, heart and kidney); type: in vivo; conditions: mouse, in vivo
Experimental: The LNP formulation (prepared according to Example 4) containing […] Fluc-mRNA was injected intramuscularly into female BALB/C mice aged 4-6 weeks and weighed 17-19 g, and the mice were intraperitoneally injected with fluorescent imaging substrate at specific time points after administration (6h, 24 h, 48h and 7d), where the mice were allowed to free move for 5 minutes, and then the average radiation intensity (corresponding to fluorescence expression intensity) of the protein expression of the mRNA carried by the LNP in the mice was detected by the IVIS Spectrum small animal in vivo imaging system.
Current mRNA vaccines usually express proteins in muscle.

293T cells [5] = experiment: Fluorescent detection of Fluc-mRNA (cell transfection efficiency of LNP formulations); type: cell-based; remark: listed apart in the source

Structure (SMILES): CCCCCCCCC(CCCCCCCC)C(=O)OCCCCCCN(CCO)CCN(CCO)CCCCCCOC(=O)C(CCCCCCCC)CCCCCCCC [YK-402]
- Cell survival rate (293T cells [1]; LNP with 1.5 μg Fluc-mRNA, 24 hours, CCK-8): 72.70%
- cell survival rate higher than ALC-0315 (293T cells [1]; difference vs ALC-0315): 25.49%
- cell survival rate higher than HIMA (293T cells [1]; difference vs HIMA (HHMA)): 8.43%
- cell survival rate higher than Lipofectamine 3000 (293T cells [1]; difference vs Lipofectamine 3000): 51.04%
- cell survival rate higher than SM-102 (293T cells [1]; difference vs SM-102): 4.80%
- cell survival rate higher than YK-404 (293T cells [1]; difference vs YK-404): 30.58%
- cell survival rate higher than YK-405 (293T cells [1]; difference vs YK-405): 30.84%
- cell survival rate higher than YK-406 (293T cells [1]; difference vs YK-406): 47.74%
- cell survival rate higher than YK-408 (293T cells [1]; difference vs YK-408): 30.39%
- cell survival rate higher than YK-409 (293T cells [1]; difference vs YK-409): 26.59%
- cell survival rate higher than YK-410 (293T cells [1]; difference vs YK-410): 27.78%
- cell survival rate higher than YK-411 (293T cells [1]; difference vs YK-411): 56.37%
- cell survival rate higher than YK-412 (293T cells [1]; difference vs YK-412): 18.56%
- cell survival rate higher than YK-413 (293T cells [1]; difference vs YK-413): 25.50%
- cell survival rate higher than YK-414 (293T cells [1]; difference vs YK-414): 43.95%
- cell survival rate higher than YK-415 (293T cells [1]; difference vs YK-415): 11.54%
- cell survival rate higher than YK-416 (293T cells [1]; difference vs YK-416): 31.73%
- cell survival rate higher than YK-417 (293T cells [1]; difference vs YK-417): 51.36%
- cell survival rate higher than YK-418 (293T cells [1]; difference vs YK-418): 51.65%
- cell survival rate higher than YK-419 (293T cells [1]; difference vs YK-419): 33.78%
- cell survival rate higher than YK-420 (293T cells [1]; difference vs YK-420): 37.11%
- cell survival rate higher than YK-421 (293T cells [1]; difference vs YK-421): 36.99%
- cell survival rate higher than YK-424 (293T cells [1]; difference vs YK-424): 44.77%
- cell survival rate higher than compound 21 (293T cells [1]; difference vs compound 21): 4.86%
- cell survival rate higher than compound 23 (293T cells [1]; difference vs compound 23): 3.59%
- cytotoxicity reduced compared with YK-411 (293T cells [1]; rounded summary statement vs YK-411): 50%
- RLU value, times that of ALC-0315 (293T cells [2]; ratio vs ALC-0315): 2.30
- RLU value, times that of HHMA (293T cells [2]; ratio vs HHMA): 2.43
- RLU value, times that of Lipofectamine 3000 (293T cells [2]; ratio vs Lipofectamine 3000): 4.20
- RLU value, times that of YK-009 (293T cells [2]; ratio vs YK-009): 0.98
- RLU value, times that of YK-405 (293T cells [2]; ratio vs YK-405): 1.58
- RLU value, times that of YK-406 (293T cells [2]; ratio vs YK-406): 64.46
- RLU value, times that of YK-408 (293T cells [2]; ratio vs YK-408): 3.42
- RLU value, times that of YK-409 (293T cells [2]; ratio vs YK-409): 7.53
- RLU value, times that of YK-410 (293T cells [2]; ratio vs YK-410): 12.37
- cell transfection efficiency, times that of YK-412 (293T cells [2]; ratio vs YK-412): 1.50
- cell transfection efficiency, times that of YK-413 (293T cells [2]; ratio vs YK-413): 3.66
- cell transfection efficiency, times that of YK-414 (293T cells [2]; ratio vs YK-414): 11.36
- cell transfection efficiency, times that of YK-416 (293T cells [2]; ratio vs YK-416): 1.27
- cell transfection efficiency, times that of YK-419 (293T cells [2]; ratio vs YK-419): 1.59
- cell transfection efficiency, times that of YK-420 (293T cells [2]; ratio vs YK-420): 1.25
- cell transfection efficiency, times that of YK-421 (293T cells [2]; ratio vs YK-421): 10.81
- average radiation intensity, times that of ALC-0315 (female BALB/C mice [3]; 6 h): 1.75
- average radiation intensity, times that of HHMA (female BALB/C mice [3]; 6 h): 2.22
- average radiation intensity, times that of SM-102 (female BALB/C mice [3]; 6 h): 2.13
- average radiation intensity, times that of compound 21 (female BALB/C mice [3]; 6 h): 2.45
- average radiation intensity, times that of compound 23 (female BALB/C mice [3]; 6 h): 2.53
- expression amount in mice, times that of YK-415 (female BALB/C mice [3]; 6 h): 12.48
- expression amount in mice, times that of YK-417 (female BALB/C mice [3]; 6 h): 24.31
- mRNA expression in mice, times that of YK-411 (female BALB/C mice [3]; 6 h): 251.30
- average radiation intensity, times that of ALC-0315 (female BALB/C mice [3]; 24 h): 4.21
- average radiation intensity, times that of HHMA (female BALB/C mice [3]; 24 h): 6.65
- average radiation intensity, times that of SM-102 (female BALB/C mice [3]; 24 h): 6.47
- average radiation intensity, times that of compound 21 (female BALB/C mice [3]; 24 h): 7.19
- average radiation intensity, times that of compound 23 (female BALB/C mice [3]; 24 h): 7.91
- expression amount in mice, times that of YK-415 (female BALB/C mice [3]; 24 h): 12.38
- expression amount in mice, times that of YK-417 (female BALB/C mice [3]; 24 h): 39.95
- mRNA expression in mice, times that of YK-411 (female BALB/C mice [3]; 24 h): 394.86
- average radiation intensity, times that of ALC-0315 (female BALB/C mice [3]; 48 h): 8.62
- average radiation intensity, times that of HHMA (female BALB/C mice [3]; 48 h): 10.37
- average radiation intensity, times that of SM-102 (female BALB/C mice [3]; 48 h): 10.52
- average radiation intensity, times that of compound 21 (female BALB/C mice [3]; 48 h): 10.96
- average radiation intensity, times that of compound 23 (female BALB/C mice [3]; 48 h): 10.50
- expression amount in mice, times that of YK-415 (female BALB/C mice [3]; 48 h): 21.90
- expression amount in mice, times that of YK-417 (female BALB/C mice [3]; 48 h): 49.08
- mRNA expression in mice, times that of YK-411 (female BALB/C mice [3]; 48 h): 354.61
- average radiation intensity, times that of ALC-0315 (female BALB/C mice [3]; 7 d): 1.42
- average radiation intensity, times that of HHMA (female BALB/C mice [3]; 7 d): 1.67
- average radiation intensity, times that of SM-102 (female BALB/C mice [3]; 7 d): 1.48
- average radiation intensity, times that of compound 21 (female BALB/C mice [3]; 7 d): 1.56
- average radiation intensity, times that of compound 23 (female BALB/C mice [3]; 7 d): 1.63
- expression amount in mice, times that of YK-415 (female BALB/C mice [3]; 7 d): 2.46
- expression amount in mice, times that of YK-417 (female BALB/C mice [3]; 7 d): 4.35
- mRNA expression in mice, times that of YK-411 (female BALB/C mice [3]; 7 d): 20.71
- average radiation intensity, 6 h (female BALB/C mice [3]; Fluc-mRNA LNP intramuscular, 6 h after administration): 1470100
- average radiation intensity, 24 h (female BALB/C mice [3]; Fluc-mRNA LNP intramuscular, 24 h after administration): 798408
- average radiation intensity, 48 h (female BALB/C mice [3]; Fluc-mRNA LNP intramuscular, 48 h after administration): 345740
- average radiation intensity, 7 d (female BALB/C mice [3]; Fluc-mRNA LNP intramuscular, 7 d after administration): 9940
- protein expression in the liver (female BALB/C mice [4]; female, BALB/C, 6 h): reduced compared with SM-102
- protein expression in the liver (female BALB/C mice [4]): had protein expression in the liver
- protein expression in the spleen (female BALB/C mice [4]): had protein expression in the spleen
- Relative light unit (RLU) (293T cells [5]; LNP with 0.3 μg Fluc-mRNA, 96-well plate, 24 hours): 5044102 RLU
- cell transfection efficiency, times that of YK-415 (293T cells [5]; ratio vs YK-415): 16.93
- cell transfection efficiency, times that of YK-417 (293T cells [5]; ratio vs YK-417): 43.01
- cell transfection efficiency, times that of YK-418 (293T cells [5]; ratio vs YK-418): 45.34
- cell transfection efficiency, times that of YK-424 (293T cells [5]; ratio vs YK-424): 1.75
- RLU value, times that of compound 21 (293T cells [5]; ratio vs compound 21): 3.34
- RLU value, times that of compound 23 (293T cells [5]; ratio vs compound 23): 3.60

Source: patent US12545637B2, “Extrahepatic targeted cationic lipid compound with high efficiency and low toxicity and its composition” (BEIJING YOUCARE KECHUANG PHARMACEUTICAL TECHNOLOGY CO., LTD., priority 2023, dated 2026)
